The text below walks through data of US20080004272A1, “Compositions and methods for modulating gated ion channels” (PainCeptor Pharma Corporation, priority 2006, published 2008).

Some results are limits rather than exact numbers.

The first test addresses T1, ASIC1a (Homo sapiens, UniProt P78348).
T1 sequence (P78348 1-528): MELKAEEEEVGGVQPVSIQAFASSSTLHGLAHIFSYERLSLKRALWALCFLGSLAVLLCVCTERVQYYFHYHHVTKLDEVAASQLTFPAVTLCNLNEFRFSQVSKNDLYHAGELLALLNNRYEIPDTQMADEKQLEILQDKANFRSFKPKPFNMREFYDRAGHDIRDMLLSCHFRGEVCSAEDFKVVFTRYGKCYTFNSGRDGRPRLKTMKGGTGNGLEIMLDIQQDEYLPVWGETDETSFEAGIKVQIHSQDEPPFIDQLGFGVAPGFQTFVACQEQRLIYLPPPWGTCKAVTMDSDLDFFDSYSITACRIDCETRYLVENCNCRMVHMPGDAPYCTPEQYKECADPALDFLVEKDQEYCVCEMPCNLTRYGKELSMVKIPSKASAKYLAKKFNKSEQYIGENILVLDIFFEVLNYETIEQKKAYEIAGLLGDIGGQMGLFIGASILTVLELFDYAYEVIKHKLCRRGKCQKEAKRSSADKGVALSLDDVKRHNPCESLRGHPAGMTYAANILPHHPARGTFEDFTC
In words: Calcium imaging of MES-induced calcium response (FLIPR). The arrangement: host or cells: HEK293. The class given is cell-based. The conditions noted are these: ASIC1a expressing HEK293 cells, MES-induced calcium response; read-out: IC50 (FLIPR). The method, then:
[…] Confluency of cells should be 80-90% on day of plating. Cells are rinsed with 10 ml of PBS and cells are re-suspended by addition of culture medium and trituration with a 25 ml pipette.
The cells are seeded at a density of approximately 1×10^6 cells/ml (100 μl/well) in black-walled, clear bottom, 96-well plates pre-treated with 10 mg/l poly-D-lysin (75 μl/well for ≧30 min). Plated cells are allowed to proliferate for 24 h before loading with dye.
Fluo-4/AM (1 mg, Molecular Probes) is dissolved in 912 μl DMSO. The Fluo-4/AM stock solution (1 mM) is diluted with culture medium to a final concentration of 2 μM (loading solution).
The culture medium is aspirated from the wells, and 50 μl of the Fluo-4/AM loading solution is added to each well. The cells are incubated at 37° C. for 30 min.
Following the second wash, 100 μl modified Assay Buffer is added to each well and the fluorescence is measured in FLIPR™ or FlexStation™ (Molecular Devices, USA), or any other suitable equipment known to the skilled in the art.
Temperature: Room temperature (20-22° C.)
First addition: 50 μl test solution at a rate of 30 μl/sec and a starting height of […]
Second addition: 50 μl MES solution (20 mM, 5 mM final concentration) at a rate of 35 μl/sec and a starting height of 150 μl.
Reading intervals: pre-incubation−10 sec×7 and 3 sec×3 antagonist phase−3 sec×7 and 10 sec×12
Addition plates (compound test plate and MES plate) are placed on the right and left positions in the FLIPR tray, respectively. Cell plates are placed in the middle position and the ASIC1a program is effectuated. FLIPR will then take the appropriate measurements in accordance with the interval settings above. Fluorescence obtained after stimulation is corrected for the mean basal fluorescence (in modified Assay Buffer).
The MES-induced peak calcium response, in the presence of test substance, is expressed relatively to the MES response alone. Test substances that block the MES-induced calcium response are re-tested in triplicates.
On to `CS(=O)(=O)N1CCc2c(-c3ccc(Cl)cc3)cc3c(c2C1)NC(=O)C3=NO` [Compound 71, 5-(4-Chloro-phenyl)-8-methanesulfonyl-6,7,8,9-tetrahydro-1H-pyrrolo[3,2-h]isoquinoline-2,3-dione 3-oxime], for which the 50% inhibitory concentration (IC50) (usually the concentration needed to halve the response being measured) was above 70 µM. On the same count and under the same terms, in the case of `C#CN1C(=O)C(=NO)c2cc(-c3ccccc3)c3c(c21)CN(CC)CC3` [Compound 72, 8-Ethyl-1-ethynyl-5-phenyl-6,7,8,9-tetrahydro-1H-pyrrolo[3,2-h]isoquinoline-2,3-dione 3-oxime] it was below 10 µM; in that of `CCN1CCc2c(-c3ccccc3)cc3c(c2C1)N(CC(=O)OC)C(=O)C3=NO` [Compound 73, (8-Ethyl-3-hydroxyimino-2-oxo-5-phenyl-2,3,6,7,8,9-hexahydro-pyrrolo[3,2-h]isoquinolin-1-yl)-acetic acid methyl ester], below 20 µM; in that of `O=C1Nc2c(cc(-c3ccccc3)c3c2CCCC3)/C1=N/O` [Compound 114], above 70 µM.

As for `CCOC(=O)N1CCc2c(Br)ccc(NC(=O)CCl)c2C1` [Compound 145], the IC50 was above 70 µM.

Regarding `O=C(/C=N/O)Nc1ccc(-c2ccccc2)c2ccncc12` [Compound 152], the IC50 is above 70 µM. As for `CN1CCc2c(-c3ccccc3)ccc(NC(=O)CC(=O)O)c2C1` [Compound 153], the IC50 was above 70 µM. The same measure, in the same setting: under `CC(=O)Nc1c([N+](=O)[O-])cc(-c2ccccc2)c2c1CN(C)CC2` [Compound 154] stands above 70 µM. As for `CN1CCc2c(cccc2-c2ccccc2)C1` [Compound 173], the IC50 is above 70 µM. On the same count and under the same terms, in the case of `CN1CCc2c(-c3ccccc3S(=O)(=O)N(C)C)cc3c(c2C1)NC(=O)/C3=N\O` [Compound 223] it was above 70 µM.

A further test has as its target T1, ASIC1a. As to the kind of experiment: Two-electrode voltage clamp in Xenopus laevis oocytes (Xo), acid-induced currents. The conditions noted are these: 30 μM, Xenopus oocytes; read-out: % inh. at 30 μM (Xo). The arrangement: expressed in transfected cells; host or cells: Xenopus laevis oocytes (nuclear microinjection of expression vector such as pcDNA3). The class given is cell-based. As for the experimental part: Two-electrode voltage clamp electrophysiological assays in Xenopus laevis oocytes expressing gated ion channels are performed as follows:
Oocytes are surgically removed from adult Xenopus laevis and treated for 2 h at room temperature with 1 mg/ml type I collagenase (Sigma) in Barth's solution under mild agitation. Selected oocytes at stage IV-V are defolliculated manually before nuclear microinjection of 2.5-5 ng of a suitable expression vector, such as pcDNA3, comprising the nucleotide sequence encoding a gated ion channel subunit protein. In such an experiment, the oocytes express homomultimeric proton-gated ion channels on their surface. In an alternate experiment, one, two, three or more vectors comprising the coding sequences for distinct gated ion channel subunits are co-injected in the oocyte nuclei. In the latter case, oocytes express heteromultimeric proton-gated ion channels. For example, ASIC2a and/or ASIC3 subunits in pcDNA3 vector are co-injected at a 1:1 cDNA ratio. After 2-4 days of expression at 19° C. in Barth's solution containing […] gentamicin and 1.8 mM CaCl2, gated ion channels are activated by applying an acidic solution (pH<7) and currents are recorded in a two electrode voltage-clamp configuration, using an OC-725B amplifier (Warner Instruments). Currents are acquired and digitized at 500 Hz on an Apple Imac G3 computer with an A/D NB-MIO-16XL interface (National Instruments) and recorded traces are post-filtered at 100 Hz in Axograph (Axon Instruments) (Neher, E. and Sakmann, B. (1976) Nature 260:799-802). Once impaled with the microelectrodes, oocytes are continuously superfused at 10-12 ml/min with a modified Ringer's solution containing 97 mM NaCl, 2 mM KCl, 1.8 mM CaCl2, and 10 mM HEPES brought to pH 7.4 with NaOH (Control Ringer). Test Ringer solution is prepared by replacing HEPES with MES and adjusting the pH to the desired acidic value. Compounds of the present invention are prepared in both the Control and Test Ringer solutions and applied to oocytes at room temperature through a computer-controlled switching valve system. Osmolarity of all solutions is adjusted to 235 mOsm with choline chloride. Similarly, recordings can also be acquired in an automated multichannel oocytes system as the OpusExpress™ (Molecular Devices, Sunnyvale, USA).
FIGS. 1A and 2A illustrate the inhibitory effects of Compounds 203 and 206 on acid-induced activation of recombinant homomeric hASIC1a channels.
Background: Two-electrode voltage clamp holds a large cell at a set potential and records current.
With `CN1CCc2c(-c3ccccc3)cc3c(c2C1)NC(=O)/C3=N/OC1CCCCO1` (centres unmarked) [Compound 61], the inhibition at 30 µM was above 50%.

The same test, now with this note: 50 μM, Xenopus oocytes; read-out: % inh. at 50 μM (Xo).
Take `COc1ccc(F)cc1Nc1ccc([N+](=O)[O-])c2c1CCN(C)C2` [Compound 6]: the inhibition at 50 µM is below 25%.

For the compound `COc1ccc(F)cc1Nc1ccc(N)c2c1CCN(C)C2` [Compound 7], the inhibition at 50 µM was below 25%. Still for that read-out and setting: under `COc1ccc(F)cc1Oc1ccc([N+](=O)[O-])c2cnccc12` [Compound 8] stands below 25%. The same measure, in the same setting: under `COc1ccc(F)cc1Oc1ccc([N+](=O)[O-])c2c1CCN(C)C2` [Compound 10] stands below 25%; under `COc1ccc(F)cc1Oc1ccc([N+](=O)[O-])c2c[n+](C)ccc12` [Compound 11], below 25%. In the case of `COc1ccc(F)cc1Oc1cc2c(c3c1CCN(C)C3)NC(=O)/C2=N/O` [Compound 12], the inhibition at 50 µM is 50 to 70%.

Consider `COc1ccc(F)cc1Oc1cc2c(c3c1CCN(C)C3)NC(=O)C2=O` [Compound 13], for which the inhibition at 50 µM was below 25%.

As to `CCOC(C)O/N=C1/C(=O)Nc2c1cc(-c1ccccc1)c1c2CN(C)CC1` (centres unmarked) [Compound 63], the inhibition at 50 µM was 30 to 50%.

With `CC(=O)OCCOCO/N=C1/C(=O)Nc2c1cc(-c1ccccc1)c1c2CN(C)CC1` [Compound 64], the inhibition at 50 µM was below 25%. Same read-out and setting: in the case of `COC(=O)c1ccccc1CO/N=C1/C(=O)Nc2c1cc(-c1ccccc1)c1c2CN(C)CC1` [Compound 65] it was 20 to 40%.

For `COCCOCN1C(=O)/C(=N/O)c2cc(-c3ccccc3)c3c(c21)CN(C)CC3` [Compound 66], the inhibition at 50 µM is 20 to 40%. Still for that read-out and setting: in the case of `CCOC(C)O/N=C1/C(=O)Nc2c1cc(-c1cc(F)ccc1OC)c1c2CN(C)CC1` (centres unmarked) [Compound 67] it was below 25%; in that of `CN1CCc2c(-c3ccccc3)cc3c(c2C1)NCC/C3=N/O` [Compound 96], 20 to 40%. As for `CN1CCc2c(-c3ccccc3)cc3[nH]c(=O)c(=O)[nH]c3c2C1` [Compound 100], the inhibition at 50 µM is below 25%.

Regarding `CN1CCc2c(-c3ccccc3)cc3ncc(O)nc3c2C1` [Compound 101], the inhibition at 50 µM is below 25%. Still for that read-out and setting: in the case of `CN1CCc2c(-c3ccccc3)cc3c(c2C1)NC(=O)C3=NNC(=O)C(N)=O` [Compound 107] it was 20 to 40%. In the case of `CNN=C1C(=O)Nc2c1cc(-c1ccccc1)c1c2CN(C)CC1` [Compound 108], the inhibition at 50 µM is below 25%. Same read-out and setting: in the case of `CN1CCc2c(-c3ccccc3)cc3c(c2C1)NC(=O)C3=NNCCO` [Compound 109] it was below 25%; in that of `CCOC(=O)CC(=O)NN=C1C(=O)Nc2c1cc(-c1ccccc1)c1c2CN(C)CC1` [Compound 110], below 25%; in that of `CC(=O)NN=C1C(=O)Nc2c1cc(-c1ccccc1)c1c2CN(C)CC1` [Compound 112], below 25%. Still for that read-out and setting: in the case of `CN1CCc2c(-c3ccccc3)cc3c(c2C1)NC(=O)C3=NNC(=O)c1ccc(O)cc1O` [Compound 113] it was below 25%; in that of `CN1CCc2c(-c3ccccc3)ccc(CNC(=O)c3ccccc3)c2C1` [Compound 116], below 25%. Turning to `CCOC(=O)CN(Cc1ccccc1)Cc1ccc(-c2ccccc2)c2c1CN(C(=O)OCC)CC2` [Compound 122], the inhibition at 50 µM was 20 to 40%.

For `CCOC(=O)N1CCc2c(-c3ccccc3)ccc(CN(CC(=O)O)Cc3ccccc3)c2C1` [Compound 123], the inhibition at 50 µM is below 25%. `CN1CCc2c(Br)ccc(NC(=O)CCl)c2C1` [Compound 146]: the inhibition at 50 µM is below 25%.

As for `CCOC(=O)N1CCc2c(Br)cc(C(=O)CCl)c(N)c2C1` [Compound 163], the inhibition at 50 µM was below 25%. Same read-out and setting: under `CC(=O)Nc1c(C(N)=O)cc(-c2ccccc2)c2c1CN(C)CC2` [Compound 164] stands below 25%. Still for that read-out and setting: under `CC(C)(C)OC(=O)N1CCc2c(-c3ccccc3)ccc(NCC(=O)O)c2C1` [Compound 165] stands 20 to 40%; under `CN1CCc2c(-c3ccccc3)cc(C(=O)NOCc3ccccc3)c(N)c2C1` [Compound 166], below 25%.

Staying with this test, now noted: 100 μM, Xenopus oocytes; read-out: % inh. at 100 μM (Xo).
As to `COCCOCO/N=C1/C(=O)Nc2c1cc(-c1ccccc1)c1c2CN(C)CC1` [Compound 62], the inhibition at 100 µM is above 50%.
